Converted amounts (≈) assume the structure as drawn.
How the values were obtained:
[1] = system: Pseudoalteromonas sp. PS5 (NJS597, StrR); assay: Minimum inhibitory concentration of kanamycin; type: cell-based; conditions: read-out: MIC Kan
Protocol: (§1) • 1. Streak out marine microbes onto Marine Agar plates and incubate overnight at 25° C.-28° C. Some strains take longer to grow to single colonies. Incubation times longer than 24 hours may be required for some slower growing strains. Monitor growth in future steps accordingly.
(§2) • 2. Inoculate a single colony into 5 mL Marine Broth (2216) media in the late afternoon/early evening. Incubate overnight at 25 C, shaking at 200 rpm.
(§3) • 3. Measure optical density (OD600) of overnight culture growth and document. • 4. Pipette 100 μL of overnight culture from each strain onto Marine Agar plates containing either Strep (for background resistance), Kan (MIC), Gent (MIC) at each concentration (25 μg/mL, 50 μg/mL, 100 μg/mL and 200 μg/mL). • 5. Use beads or plate spreader to spread the culture evenly on the plate. Remove the beads and incubate overnight at 25° C. overnight.
(§4) • 6. Observe and document growth on all concentration plates. For the MICs (Kan/Gent) identify the lowest concentration of media in which no colonies are observed. If there are no colonies at any concentration, screen lower concentrations of Kanamycin/Gentamicin in the media (i.e. 5, 10, 15, 20 μg/mL). • 7. For the Streptomycin Resistant strain, select a single colony from the highest dose of Streptomycin that has growth and streak it out onto a plate containing the same concentration and a plate containing the next highest concentration of antibiotics. Incubate overnight at 25 C.
(§5) • 8. Observe and document growth on both the MIC plates (2 days old) and the Streptomycin resistance plates. If Streptomycin resistance is sustained at less than 200 μg/mL, then continue step 7, passaging the strains onto higher concentrations of antibiotics. Once robust growth occurs at 200 μg/mL, inoculate a single colony into 5 mL Marine Broth containing Strep 200 μg/mL and incubate 25° C. overnight, shaking at 200 rpm.

[2] = system: Ruegeria pomeroyi DSS-3 (NJS409); assay: Minimum inhibitory concentration of kanamycin; type: cell-based; conditions: Ruegeria pomeroyi DSS-3, Wild type
Protocol: as §1, §2, §3, §4, §5

[3] = system: Pseudoalteromonas luteoviolacea HI1 (NJS005, StrR); assay: Minimum inhibitory concentration of kanamycin; type: cell-based; conditions: read-out: MIC Kan
Protocol: as §1, §2, §3, §4, §5

Cobetia sp. MMG (NJS775) = assay: Minimum inhibitory concentration of kanamycin; type: cell-based; conditions: Wild type
Protocol: as §1, §2, §3, §4, §5

Shimia sp. MMG (NJS302) = assay: Minimum inhibitory concentration of kanamycin; type: cell-based; conditions: Wild type
Protocol: as §1, §2, §3, §4, §5

[4] = system: Vibrio harveyi (NJS675, StrR); assay: Minimum inhibitory concentration of kanamycin; type: cell-based; conditions: read-out: MIC Kan
Protocol: as §1, §2, §3, §4, §5

[5] = system: Phaeobacter gallaeciensis ATCC 700781 (DSM 26640) (NJS408, Wild type); assay: Minimum inhibitory concentration of kanamycin; type: cell-based; conditions: Phaeobacter gallaeciensis ATCC 700781, Wild type
Protocol: as §1, §2, §3, §4, §5

[6] = system: Endozoicomonas montiporae CL-33 (NJS662); assay: Minimum inhibitory concentration of kanamycin; type: cell-based; conditions: Endozoicomonas montiporae CL-33, Wild type
Protocol: as §1, §2, §3, §4, §5

[7] = system: Photobacterium mandapamensis svers.3.2 (MT002); assay: Minimum inhibitory concentration of kanamycin; type: cell-based; conditions: Photobacterium leiognathi, Photobacterium mandapamensis svers.3.2, Wild type
Protocol: as §1, §2, §3, §4, §5

[8] = system: Phaeobacter sp. HS012 (NJS491); assay: Minimum inhibitory concentration of kanamycin; type: cell-based; conditions: Phaeobacter sp. HS012, Wild type
Protocol: as §1, §2, §3, §4, §5

[9] = system: Nereida sp. MMG025 (NJS678); assay: Minimum inhibitory concentration of kanamycin; type: cell-based; conditions: Nereida sp. MMG025, Wild type
Protocol: as §1, §2, §3, §4, §5

[10] = system: Leisingera sp. 204H (NJS204, Wild type); assay: Minimum inhibitory concentration of kanamycin; type: cell-based
Protocol: as §1, §2, §3, §4, §5

[11] = system: two other types of invertebrate larvae; conditions: two other types of invertebrate larvae [29]; cited from earlier work
phytoplankton = conditions: [31]; cited from earlier work
[12] = system: Pacific and Atlantic corals; conditions: synthesized TBP; cited from earlier work
sea urchin = conditions: [32]; cited from earlier work

NC[C@H]1O[C@H](O[C@H]2[C@H](O)[C@@H](O[C@H]3O[C@H](CO)[C@@H](O)[C@H](N)[C@H]3O)[C@H](N)C[C@@H]2N)[C@H](O)[C@@H](O)[C@@H]1O [Kan, kanamycin]
MIC [1]: 200 µg/mL (≈ 413 µM) | MIC [2]: 300 µg/mL (≈ 619 µM) | MIC [3]: 200 µg/mL (≈ 413 µM) | MIC (Cobetia sp. MMG (NJS775)): 200 µg/mL (≈ 413 µM) | MIC (Shimia sp. MMG (NJS302)): 300 µg/mL (≈ 619 µM) | MIC [4]: 200 µg/mL (≈ 413 µM) | MIC [5]: 300 µg/mL (≈ 619 µM) | MIC [6]: 100 µg/mL (≈ 206 µM) | MIC [7]: 400 µg/mL (≈ 826 µM) | MIC [8]: 300 µg/mL (≈ 619 µM) | MIC [9]: 200 µg/mL (≈ 413 µM) | MIC [10]: 200 µg/mL (≈ 413 µM)

Brc1[nH]c(Br)c(Br)c1Br [TBP, tetrabromopyrrole]
Metamorphosis in other invertebrate larvae [11]: not eliciting robust metamorphosis | Phytoplankton mortality (phytoplankton): elicits phytoplankton mortality | Induction of coral metamorphosis [12]: induce robust metamorphosis | Sea urchin development (sea urchin): halts sea urchin development

— patent publication US20260002166A1, “GENETIC ENGINEERING OF MARINE BACTERIA FOR BIOMATERIAL PRODUCTION, PROBIOTIC USE IN AQUACULTURE AND MARINE ENVIRONMENTAL RESTORATION” (San Diego State University (SDSU) Foundation, dba San Diego …, priority 2022, published 2026)
